Reference: patent US7803930B2, “Antisense modulation of apolipoprotein B-expression” (Isis Pharmaceuticals, Inc., priority 2002, dated 2010)
In the oligonucleotide strings, read from the 5' end, every base follows the letter of its sugar. An asterisk marks phosphorothioate; unmarked linkages are phosphodiester. Other units and linkages are bracketed, terminal groups are in braces. A string of capitals states the bases alone. e = 2'-O-(2-methoxyethyl) (MOE); [5mC] = 5-methylcytosine; d = 2'-deoxy (DNA)

Tests used:
[1] = test system: Cynomolgous monkey apolipoprotein B mRNA; experiment: Apolipoprotein B mRNA in primary Cynomolgous monkey hepatocytes, real-time PCR; assay type: cell-based; conditions: for % Inhibition of apolipoprotein B mRNA: primary Cynomolgous monkey hepatocytes
Method in brief: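 Primary cynomolgus hepatocytes treated with antisense oligonucleotides at 10, 50, 150 or 300 nM (some sets 10–150 nM) for 24 or 48 h, depending on the set. mRNA quantified by real-time PCR using human apoB and GAPDH primers/probes. Values are percent inhibition normalized to untreated cells, averaged over 2–6 experiments.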

[2] = test system: human apolipoprotein(a) mRNA; experiment: Apolipoprotein(a) mRNA expression in primary human hepatocytes, real-time PCR; assay type: cell-based; conditions: 24 hours; for % Change in apolipoprotein(a) mRNA expression following antisense inhibition of apolipoprotein B: primary human hepatocytes; for expression of apolipoprotein(a) mRNA: human primary hepatocytes, 5, 10, 50 or 150 nM
Method: Primary human hepatocytes (InVitro Technologies, Baltimore, Md.), cultured and transfected as described herein, were treated with 5, 10, 50 or 150 nM of ISIS 271009 (SEQ ID NO: 319), 281625 (SEQ ID NO: 224), 301012 (SEQ ID NO: 247) or 301027 (SEQ ID NO: 262). Cells were also treated with 50 or 150 nM of the control oligonucleotides ISIS 113529 (SEQ ID NO: 859) or ISIS 13650 (SEQ ID NO: 806). Untreated cells served as a control. Following 24 hours of oligonucleotide treatment, apolipoprotein(a) mRNA expression was measured by quantitative real-time PCR as described in other examples herein.
Probes and primers to human apolipoprotein(a) were designed to hybridize to a human apolipoprotein(a) sequence, using published sequence information (GenBank accession number NM_005577.1, incorporated herein as SEQ ID NO: 860). For human apolipoprotein(a) the PCR primers were: […]
forward primer: […] (SEQ ID NO: 861)
reverse primer: TGCGTCTGAGCATTGCGT (SEQ ID NO: 862) and the PCR probe was: FAM-[…]-TAMRA (SEQ ID NO: 863) where FAM is the fluorescent dye and TAMRA is the quencher dye.
Data are the average of three experiments and are expressed as percent inhibition relative to untreated controls.

apolipoprotein B protein = experiment: Apolipoprotein B protein secreted from primary Cynomolgous monkey hepatocytes, ELISA; assay type: cell-based; conditions: for % Reduction of monkey apolipoprotein B protein secretion / secretion of apolipoprotein B protein (ELISA): primary Cynomolgous hepatocytes; for % Reduction in secreted apolipoprotein B protein: primary Cynomolgous monkey hepatocytes;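 for % Reduction in secreted apolipoprotein B protein: normalized to untreated control cells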
Method in brief: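 Primary cynomolgus hepatocytes treated with oligonucleotide at 150 and 300 nM, or 50 and 150 nM for some compounds; secreted apoB protein quantified by apoB-specific ELISA. Values are means of 3 experiments.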

[3] = Time course at two doses in female C57BL/6 mice (Example 49): AST and ALT levels; assay type: in vivo, mouse
Method: Female C57BL/6 mice were divided into two groups—one group receiving oligonucleotide treatment and control animals receiving saline treatment. After overnight fasting, mice were dosed intraperitoneally twice a week with saline or 25 mg/kg or 50 mg/kg of ISIS 281625 (SEQ ID NO: 224), ISIS 301012 (SEQ ID NO: 247), or ISIS 301027 (SEQ ID NO: 262). After 2 weeks, a blood sample was taken from the tail of the mice and evaluated for liver enzyme. After 4 weeks, and study termination, animals were sacrificed and evaluated for liver enzyme levels.

[4] = 150 nM (Table 49), "+" = secretion increased
[5] = 50 nM (Table 49), "+" = secretion increased
[6] = 25 mg/kg i.p. twice a week, 2 weeks
[7] = 25 mg/kg i.p. twice a week, 4 weeks
[8] = 50 mg/kg i.p. twice a week, 2 weeks
[9] = 50 mg/kg i.p. twice a week, 4 weeks
[10] = 25 or 50 mg/kg (either dose) i.p. twice a week, after 2 weeks
[11] = higher dose (50 mg/kg), after 4 weeks
[12] = lower dose (25 mg/kg), after 4 weeks

Substance	% Inhibition of apolipoprotein B mRNA ([1]; 150 nM, 24 hours (Table 48))	% Change in apolipoprotein(a) mRNA expression following antisense inhibition of apolipoprotein B ([2]; 50 nM)	% Change in apolipoprotein(a) mRNA expression following antisense inhibition of apolipoprotein B ([2]; 150 nM)	% Reduction of monkey apolipoprotein B protein secretion (apolipoprotein B protein; [4])	% Change in apolipoprotein(a) mRNA expression following antisense inhibition of apolipoprotein B ([2]; 5 nM)	% Change in apolipoprotein(a) mRNA expression following antisense inhibition of apolipoprotein B ([2]; 10 nM)	ALT [3, 6]	AST [3, 6]	ALT [3, 7]	AST [3, 7]	ALT [3, 8]	AST [3, 8]	ALT [3, 9]	AST [3, 9]	expression of apolipoprotein(a) mRNA [2]	AST and ALT levels [3, 10]	other results
113529 (antisense e[5mC]*eT*e[5mC]*eT*eT*dA*d[5mC]*dT*dG*dT*dG*d[5mC]*dT*dG*dT*eG*eG*eA*e[5mC]*eA) [compound 113529]	11%	+14%	−9%	15%	–	–	–	–	–	–	–	–	–	–	–	–	% Inhibition of apolipoprotein B mRNA ([1]; 150 nM, 24 hours): 5%; % Inhibition of apolipoprotein B mRNA ([1]; 150 nM, 48 hours): 42%; % Inhibition of apolipoprotein B mRNA ([1]; 300 nM, 24 hours): 19%; % Inhibition of apolipoprotein B mRNA ([1]; 300 nM, 24 hours (Table 46)): 28%; % Inhibition of apolipoprotein B mRNA ([1]; 300 nM, 48 hours): 13%; % Reduction of monkey apolipoprotein B protein secretion (apolipoprotein B protein; 150 nM (Table 47)): 12%; % Reduction in secreted apolipoprotein B protein (apolipoprotein B protein; 150 nM, 24 hours): 11%; % Reduction in secreted apolipoprotein B protein (apolipoprotein B protein; 150 nM, 48 hours): 18%; % Reduction in secreted apolipoprotein B protein (apolipoprotein B protein; 300 nM, 24 hours): 12%; % Reduction in secreted apolipoprotein B protein (apolipoprotein B protein; 300 nM, 48 hours): 8%
271009 (antisense eG*e[5mC]*e[5mC]*eT*e[5mC]*dA*dG*dT*d[5mC]*dT*dG*d[5mC]*dT*dT*d[5mC]*eG*e[5mC]*eG*e[5mC]*e[5mC]) [compound 271009]	69%	+25%	−47%	26%	+70%	+31%	–	–	–	–	–	–	–	–	–	–	% Inhibition of apolipoprotein B mRNA ([1]; 10 nM, 24 hours (Table 48)): 42%; % Inhibition of apolipoprotein B mRNA ([1]; 50 nM, 24 hours (Table 48)): 66%; % Reduction of monkey apolipoprotein B protein secretion (apolipoprotein B protein; [5]): +30%
281625 (antisense eA*eG*eG*eT*eT*dA*d[5mC]*d[5mC]*dA*dG*d[5mC]*d[5mC]*dA*d[5mC]*dA*eT*eG*e[5mC]*eA*eG) [compound 281625]	–	−34%	+32%	–	−9%	−23%	21.2 IU/L	40.8 IU/L	31.8 IU/L	75 IU/L	30.8 IU/L	44.4 IU/L	210.4 IU/L	152.4 IU/L	–	–	% Inhibition of apolipoprotein B mRNA ([1]; 10 nM, 24 hours (Table 46), "+" = expression increased): +5%; % Inhibition of apolipoprotein B mRNA ([1]; 50 nM, 24 hours (Table 46)): 41%; % Inhibition of apolipoprotein B mRNA ([1]; 150 nM, 24 hours (Table 46), "+" = expression increased): 35%; % Inhibition of apolipoprotein B mRNA ([1]; 300 nM, 24 hours (Table 46)): 69%; % Reduction of monkey apolipoprotein B protein secretion (apolipoprotein B protein; 50 nM (Table 47)): 6%; % Reduction of monkey apolipoprotein B protein secretion (apolipoprotein B protein; 150 nM (Table 47)): 13%
301012 (eG*e[5mC]*e[5mC]*eT*e[5mC]*dA*dG*dT*d[5mC]*dT*dG*d[5mC]*dT*dT*d[5mC]*eG*e[5mC]*eA*e[5mC]*e[5mC]) [compound 301012]	–	+30%	+38%	–	+34%	+86%	22.4 IU/L	37.2 IU/L	24.8 IU/L	89.8 IU/L	23.2 IU/L	38.4 IU/L	29.2 IU/L	107.4 IU/L	–	–	% Inhibition of apolipoprotein B mRNA ([1]; 10 nM, 24 hours): 24%; % Inhibition of apolipoprotein B mRNA ([1]; 10 nM, 48 hours): 76%; % Inhibition of apolipoprotein B mRNA ([1]; 50 nM, 24 hours): 60%; % Inhibition of apolipoprotein B mRNA ([1]; 50 nM, 48 hours): 77%; % Inhibition of apolipoprotein B mRNA ([1]; 150 nM, 24 hours): 56%; % Inhibition of apolipoprotein B mRNA ([1]; 150 nM, 48 hours): 88%; % Inhibition of apolipoprotein B mRNA ([1]; 300 nM, 24 hours): 61%; % Inhibition of apolipoprotein B mRNA ([1]; 300 nM, 48 hours): 86%; % Reduction in secreted apolipoprotein B protein (apolipoprotein B protein; 150 nM, 24 hours): 31%; % Reduction in secreted apolipoprotein B protein (apolipoprotein B protein; 150 nM, 48 hours): 25%; % Reduction in secreted apolipoprotein B protein (apolipoprotein B protein; 300 nM, 24 hours): 10%; % Reduction in secreted apolipoprotein B protein (apolipoprotein B protein; 300 nM, 48 hours): 17%
301027 (eG*e[5mC]*eT*e[5mC]*eA*d[5mC]*dT*dG*dT*dA*dT*dG*dG*dT*dT*eT*eT*eA*eT*e[5mC]; antisense) [compound 301027]	67%	−39%	−43%	31%	−16%	−45%	27.2 IU/L	55.4 IU/L	311.2 IU/L	537.6 IU/L	34.8 IU/L	64 IU/L	1194 IU/L	1884 IU/L	–	–	% Inhibition of apolipoprotein B mRNA ([1]; 10 nM, 24 hours (Table 48)): 40%; % Inhibition of apolipoprotein B mRNA ([1]; 50 nM, 24 hours (Table 48)): 54%; % Reduction of monkey apolipoprotein B protein secretion (apolipoprotein B protein; [5]): 25%
ISIS 281625: SEQ ID NO: 224, 2′-MOE gapmer targeted to human apolipoprotein B (antisense eA*eG*eG*eT*eT*dA*d[5mC]*d[5mC]*dA*dG*d[5mC]*d[5mC]*dA*d[5mC]*dA*eT*eG*e[5mC]*eA*eG)	–	–	–	–	–	–	–	–	–	–	–	–	–	–	decreased	remained close to those of saline	inhibition of apolipoprotein B mRNA expression ([1]; Cynomolgous monkey primary hepatocytes, 10, 50, 150 or 300 nM, 24 hours): in a dose-dependent manner; AST and ALT levels over saline treated animals [3, 11]: large increase; AST and ALT levels over saline treated animals [3, 12]: moderate increase; secretion of apolipoprotein B protein (ELISA) (apolipoprotein B protein; 50 and 150 nM (statement after Table 49)): decrease
ISIS 301012: SEQ ID NO: 247, antisense oligonucleotide targeted to human apolipoprotein B (antisense GCCTCAGTCTGCTTCGCACC; chemistry not given here)	–	–	–	–	–	–	–	–	–	–	–	–	–	–	did not inhibit	remained close to those of saline	inhibition of apolipoprotein B mRNA expression ([1]; cynomolgous monkey primary hepatocytes, 10, 50, 150 or 300 nM): in a dose- and time-dependent manner; AST and ALT levels over saline treated animals [3, 11]: large increase; AST and ALT levels over saline treated animals [3, 12]: moderate increase; secretion of apolipoprotein B protein (ELISA) (apolipoprotein B protein; 150 and 300 nM): decrease
ISIS 301027: SEQ ID NO: 262, 2′-MOE gapmer targeted to human apolipoprotein B (antisense eG*e[5mC]*eT*e[5mC]*eA*d[5mC]*dT*dG*dT*dA*dT*dG*dG*dT*dT*eT*eT*eA*eT*e[5mC])	–	–	–	–	–	–	–	–	–	–	–	–	–	–	decreased	small increase	inhibition of apolipoprotein B mRNA expression ([1]; Cynomolgous monkey primary hepatocytes, 10, 50 and 150 nM, 24 hours): in a dose-dependent manner; AST and ALT levels ([3]; either dose, after 4 weeks): huge increase
